# How the values were obtained:
# [1] = Solubility in water; assay type: physicochemical
# [2] = tested on: E. coli; experiment: In vivo anti-microbial efficacy against bacteria (ED50')
# Method: (§1) For example, the anti-microbial activity of calcium myxin dihydrate, prepared by the method of this invention, is evaluated and compared to that of myxin itself both in vivo against 4 strains of bacteria and in vitro against yeast and fungus infections.
# [3] = tested on: P. aeruginosa; experiment: as above
# Method: as §1
# [4] = tested on: S. agalactiae; experiment: as above
# Method: as §1
# [5] = tested on: S. aureus; experiment: as above
# Method: as §1
Compound,solubility in water [1],ED50' [2],ED50' [3],ED50' [4],ED50' [5]
"COc1cccc2c1[n+]([O-])c1cccc(O)c1[n+]2[O-] [Myxin, 6-methoxy-1-phenazinol 5,10-dioxide]",very slightly soluble,–,–,–,–
"6-methoxy-1-phenazinol 5,10-dioxide, calcium dihydrate complex [Calcium Myxin Dihydrate]",–,60 µg/mL,20 µg/mL,< 4 µg/mL,< 20 µg/mL

# Source: patent US4003891A, “Preparation of metal complexes of 6-methoxy-1-phenazinol 5,10 dioxide” (Hoffmann-La Roche Inc., priority 1975, dated 1977)
